Assays:
[1] = Cyclic voltammetry (CV) screening assay, oxidation potential; format: physicochemical
Procedure: The oxidation/reduction characteristics of the compounds were investigated. Several compounds, including L-Trp and derivatives, were evaluated for the protection of Trp oxidation in proteins using cyclic voltammetry (CV) and rank ordered based on their oxidation potentials (Table 2). Specifically, the candidate antioxidants were dissolved in deionized water and then added to a 0.2 M lithium perchlorate electrolyte solution. […] Solutions were scanned from −0.10 V to +1.50 V at a scan rate of either 100 or 500 mV/sec. The analytical cell was purged for four minutes with nitrogen before scanning of each antioxidant solution. The input was a linear scan of the potential of a working electrode, and the output was measurement of the resulting current. […] Redox reactions were characterized by sharp increases or decreases in current (peaks). The potential at which an oxidation reaction occurred was referred to as the anodic peak potential (or oxidation potential), and the potential at which a reduction occurred was referred to as is the cathodic peak (or reduction) potential.

mAb1 [2] = test: Ambient light exposure of 50 mg/mL mAb1 formulations containing L-Trp (Amplex assay, RP-HPLC); format: physicochemical, human
Description: While confirming the photosensitivity of free L-Trp under ICH light conditions, the effect of ambient light that was typically seen in laboratories was studied. Measurements using a DLM1 digital light meter in various labs indicated an average of 300 lux on a lab benchtop (with white fluorescent lighting), an average of 3000 lux in a laminar flow hood (with white fluorescent lighting) and about 10000 lux for a windowsill exposed to southeast sunlight. […] Peroxide production increased with both luminosity (300, 3000, and 10000 lux) and time (1, 3, and 7 days). […] These levels of light exposure and time were determined to be pharmaceutically relevant for drug substance handling under ambient light and temperature before fill/finish operations and potentially while inspecting drug product vials.

mAb1 [3] = test: mAb1 light stress study (16 hours at 250 W/m^2), RP-HPLC; format: physicochemical, human; conditions: 16 hours of light at 250 W/m^2
Procedure: The fragments were reduced with DTT, and then separated and identified via Liquid Chromatography-Mass Spectrometry (LC-MS). […] Comparison of area integrated under the oxidized and native peaks was used to quantify HC Fab and Fc oxidation. […] By using the papain digest RP-HPLC method in the present study it was possible to investigate Trp residue oxidation by quantifying HC Fab oxidation, and Met residue oxidation by quantifying HC Fc oxidation.
Antioxidants were added at 1 mM. Glass vials containing these formulations were exposed to 250 W/m^2 light in an Atlas SunTest CPS+ Xenon Test Instrument (Chicago, Ill.). Control vials were wrapped in aluminum foil and treated similarly. After light exposure, solutions were prepared for analysis by reverse-phase HPLC as described above.

[4] = Photosensitivity screening assay (H2O2 by Amplex Ultra Red after light exposure); format: physicochemical; conditions: 1 mM in 20 mM histidine acetate pH 5.5, four hours of light at 250 W/m^2
Procedure: As a screening tool, antioxidant candidates were exposed to light for four hours at 250 W/m^2 and the resulting H2O2 formation was quantified by the Amplexassay. Specifically, antioxidants were prepared to 1 mM in 20 mM histidine acetate buffer at pH 5.5. The 1 mM antioxidant solutions were aliquoted into glass vials (2 mL/glass vial) and exposed to four hours of light at 250 W/m^2 in an Atlas SunTest CPS+ Xenon Test Instrument (Chicago, Ill.). Total UV dose was 90 watt-hours/square meter and total visible dose was 0.22 million lux hours over the 4-hour period. Control vials were wrapped in aluminum foil and treated similarly. The amount of hydrogen peroxide generated after exposure to light was measured using the Amplex® Ultra Red Assay (Invitrogen, Carlsbad, Calif.) following the manufacturer's recommended procedure. On addition of horseradish peroxidase (HRP), the dye reacted 1:1 stoichiometrically with H2O2, resulting in the production of fluorescent oxidation product resorufin. In this study, fluorescence readings were obtained using a Spectra Max M2 Micro-plate Reader (Molecular Devices, Sunnyvale, Calif.) with excitation and emission set at 560 nm and 590 nm, respectively. Final H2O2 concentrations were determined using a standard curve ranging from 0 μm to 20 μm.

mAb1 [5] = test: mAb1 Fenton stress study (H2O2 + Fe), RP-HPLC; format: physicochemical, human; conditions: 10 ppm H2O2 and 0.2 mM Fe(III), 40° C. for 3 hours; antioxidant 1 mM
Procedure: Antioxidants were added at a final concentration of 1 mM. […] After incubation, each reaction was quenched by addition of 100 mM L-Met and then prepared for analysis by reverse-phase HPLC as described above.
The Fenton reaction, using a mixture of H2O2 and Fe ions, generates oxidation through a metal catalyzed, hydroxyl radical reaction (Prousek et al., Pure and Applied Chemistry 79(12):2325-2338 (2007)). This reaction generated Fab, i.e. tryptophan, oxidation in mAb1. The reaction was also carried out in the presence of select antioxidants that were useful against both AAPH and light induced oxidation as reported above. Data related to the antioxidant properties against Fenton mediated reaction were analyzed using the RP-HPLC assay as described above. The Fenton reaction used 10 ppm of H2O2 and 0.2 mM of Fe(III). The reaction was incubated at 40° C. for 3 hours, quenched with 100 mM L-Met and analyzed using RP-HPLC after papain digest. All samples were the average of three separate vials, and mAb1 control (Ref Mat) was one vial with five independent injections on the HPLC. […] In regards to protection against Fc oxidation, the tested excipients (other than salicylic acid) performed slightly better than L-Trp.

Question: With `N[C@@H](Cc1c[nH]c2ccccc12)C(=O)O` [L-Trp, L-tryptophan] as the compound, how does the “Oxidation Potential” value ([1]; anodic peak potential, glassy carbon working electrode, 0.2M lithium perchlorate) read?
Answer: The value was 0.938 V vs Ag/AgCl.

Question: And the “Oxidation Potential” value ([1]; cyclic voltammetry, 0.2 M lithium perchlorate)?
Answer: Its value is 0.938 V vs Ag/AgCl.

Question: And the “Heavy chain Fab oxidation (W53) under ambient light, in words” value (mAb1 [2]; 50 mg/mL mAb1 with L-Trp, increasing luminosity)?
Answer: The value was “increased heavy chain Fab oxidation”.

Question: What about the “% Fc oxidation in mAb1” value (mAb1 [2]; 300 lux, 50 mg/mL mAb1 with L-Trp) of the same compound?
Answer: Its value is 5%.

Question: What about the “% Fc oxidation in mAb1” value (mAb1 [2]; 10000 lux, 50 mg/mL mAb1 with L-Trp) of the same compound?
Answer: The value was 40%.

Question: What about the “Hydrogen peroxide production under ambient light” value (mAb1 [2]; L-Trp in formulation buffers containing 50 mg/mL mAb1, 300, 3000, 10000 lux, 1, 3, 7 days) of the same compound?
Answer: The value was “micromolar range”.

Question: What about the “Fc oxidation as multiple of the control level” value (mAb1 [3]; 1 mM L-Trp) of the same compound?
Answer: The value was 7 times.

Question: What about the “Fab oxidation increase over the control level (mAb1 Ref Mat)” value (mAb1 [3]; excipient 1 mM or none) of the same compound?
Answer: The value was “over 11 fold”.

Question: What about the “(H2O2 produced by Compound)/(H2O2 produced by L-Trp)” value [4] of the same compound?
Answer: The value was 1.

Question: What about the “Protection of Fab oxidation with respect to the no excipient case” value (mAb1 [5]) of the same compound?
Answer: Its value is “about 25%”.

Reference: US11596620B2, “Formulations with reduced oxidation” (Genentech, Inc., priority 2013, dated 2023)
